This passage reports inhibition results from US11572590B2, “Methods for evaluating tumor cell spheroids using 3D microfluidic cell culture device” (Dana-Farber Cancer Institute, Inc., priority 2017, dated 2023).

Holding throughout (test): SelectScreen Kinase Profiling, single point inhibition and IC50 for off-target kinases
Common to all, as to format: biochemical

Experiment [1] has as its target T1, off-target kinases (Homo sapiens, UniProt P35626).
T1 sequence (P35626 1-688): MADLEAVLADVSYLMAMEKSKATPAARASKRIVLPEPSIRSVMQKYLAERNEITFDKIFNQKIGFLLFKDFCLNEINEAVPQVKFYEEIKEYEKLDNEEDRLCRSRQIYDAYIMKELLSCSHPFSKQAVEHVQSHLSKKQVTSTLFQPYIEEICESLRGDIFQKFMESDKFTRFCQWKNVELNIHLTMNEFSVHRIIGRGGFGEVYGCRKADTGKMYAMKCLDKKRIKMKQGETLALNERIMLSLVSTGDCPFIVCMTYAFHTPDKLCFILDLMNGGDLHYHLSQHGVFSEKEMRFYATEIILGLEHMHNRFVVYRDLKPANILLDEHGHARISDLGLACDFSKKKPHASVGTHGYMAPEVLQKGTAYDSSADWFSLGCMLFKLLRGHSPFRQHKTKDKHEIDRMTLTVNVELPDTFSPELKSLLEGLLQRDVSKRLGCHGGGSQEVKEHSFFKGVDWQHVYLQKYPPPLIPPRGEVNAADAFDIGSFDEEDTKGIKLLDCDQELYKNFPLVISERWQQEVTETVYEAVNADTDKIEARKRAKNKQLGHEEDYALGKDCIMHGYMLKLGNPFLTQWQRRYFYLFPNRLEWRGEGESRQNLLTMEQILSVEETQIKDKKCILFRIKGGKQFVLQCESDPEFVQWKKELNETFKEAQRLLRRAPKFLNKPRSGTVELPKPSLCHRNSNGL
The settings on record: ADRBK2 (GRK3), ZLYTE, ATP Km app.

Experiment [2] deals with off-target kinases (Homo sapiens, UniProt P36888). To be noted: FLT3, ATP Km app, ZLYTE.
Experiment [3] addresses T2, off-target kinases (Homo sapiens, UniProt P21709).
T2 sequence (P21709 26-976): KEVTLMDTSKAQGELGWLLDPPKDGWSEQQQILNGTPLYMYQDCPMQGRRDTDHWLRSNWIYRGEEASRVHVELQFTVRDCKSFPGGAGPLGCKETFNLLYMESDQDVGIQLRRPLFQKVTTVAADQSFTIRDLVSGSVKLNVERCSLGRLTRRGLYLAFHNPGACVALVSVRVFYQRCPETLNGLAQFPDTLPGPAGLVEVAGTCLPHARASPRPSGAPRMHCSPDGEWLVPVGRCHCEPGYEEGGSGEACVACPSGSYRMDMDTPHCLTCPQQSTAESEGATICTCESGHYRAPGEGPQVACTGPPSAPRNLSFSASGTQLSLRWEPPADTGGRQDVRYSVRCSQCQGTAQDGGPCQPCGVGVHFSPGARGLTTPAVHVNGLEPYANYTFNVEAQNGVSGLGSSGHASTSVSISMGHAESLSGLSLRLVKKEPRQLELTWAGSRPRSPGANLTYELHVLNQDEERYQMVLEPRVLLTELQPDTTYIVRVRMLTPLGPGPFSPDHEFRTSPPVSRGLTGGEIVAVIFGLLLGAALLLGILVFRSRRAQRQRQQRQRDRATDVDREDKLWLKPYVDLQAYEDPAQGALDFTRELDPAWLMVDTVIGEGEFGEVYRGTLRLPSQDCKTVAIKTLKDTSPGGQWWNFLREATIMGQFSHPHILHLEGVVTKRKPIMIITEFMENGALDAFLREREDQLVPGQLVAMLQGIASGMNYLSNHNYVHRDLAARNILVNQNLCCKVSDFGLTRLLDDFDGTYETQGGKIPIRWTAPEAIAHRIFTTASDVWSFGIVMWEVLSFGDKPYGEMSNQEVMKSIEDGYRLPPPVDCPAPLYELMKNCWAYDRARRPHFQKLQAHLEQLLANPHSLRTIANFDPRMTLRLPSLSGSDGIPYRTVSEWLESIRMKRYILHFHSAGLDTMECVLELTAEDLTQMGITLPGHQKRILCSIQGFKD
The settings on record: EPHA1, ZLYTE, ATP Km app.

For experiment [4], the target named is off-target kinases (Homo sapiens, UniProt P23443). To be noted: RPS6KB1 (p70S6K), ZLYTE, ATP Km app.

Where two headings read alike, the source gives them in different places.

Sequence of off-target kinases (Homo sapiens, UniProt P23443) (P23443 whole entry): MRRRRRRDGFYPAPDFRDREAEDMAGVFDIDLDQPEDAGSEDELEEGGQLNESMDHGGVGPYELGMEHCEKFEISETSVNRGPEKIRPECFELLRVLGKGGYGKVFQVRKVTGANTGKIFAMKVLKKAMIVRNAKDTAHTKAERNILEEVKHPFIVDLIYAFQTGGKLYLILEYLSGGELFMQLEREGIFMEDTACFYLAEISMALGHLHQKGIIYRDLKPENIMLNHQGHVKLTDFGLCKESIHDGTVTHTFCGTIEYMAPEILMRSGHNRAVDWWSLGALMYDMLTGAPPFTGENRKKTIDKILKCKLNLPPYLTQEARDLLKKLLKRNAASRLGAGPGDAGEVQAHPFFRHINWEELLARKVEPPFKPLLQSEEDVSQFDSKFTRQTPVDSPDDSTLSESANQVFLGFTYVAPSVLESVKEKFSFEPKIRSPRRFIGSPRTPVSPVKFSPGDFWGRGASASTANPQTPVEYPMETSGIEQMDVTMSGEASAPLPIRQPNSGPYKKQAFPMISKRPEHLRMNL
Sequence of off-target kinases (Homo sapiens, UniProt P36888) (P36888 27-993): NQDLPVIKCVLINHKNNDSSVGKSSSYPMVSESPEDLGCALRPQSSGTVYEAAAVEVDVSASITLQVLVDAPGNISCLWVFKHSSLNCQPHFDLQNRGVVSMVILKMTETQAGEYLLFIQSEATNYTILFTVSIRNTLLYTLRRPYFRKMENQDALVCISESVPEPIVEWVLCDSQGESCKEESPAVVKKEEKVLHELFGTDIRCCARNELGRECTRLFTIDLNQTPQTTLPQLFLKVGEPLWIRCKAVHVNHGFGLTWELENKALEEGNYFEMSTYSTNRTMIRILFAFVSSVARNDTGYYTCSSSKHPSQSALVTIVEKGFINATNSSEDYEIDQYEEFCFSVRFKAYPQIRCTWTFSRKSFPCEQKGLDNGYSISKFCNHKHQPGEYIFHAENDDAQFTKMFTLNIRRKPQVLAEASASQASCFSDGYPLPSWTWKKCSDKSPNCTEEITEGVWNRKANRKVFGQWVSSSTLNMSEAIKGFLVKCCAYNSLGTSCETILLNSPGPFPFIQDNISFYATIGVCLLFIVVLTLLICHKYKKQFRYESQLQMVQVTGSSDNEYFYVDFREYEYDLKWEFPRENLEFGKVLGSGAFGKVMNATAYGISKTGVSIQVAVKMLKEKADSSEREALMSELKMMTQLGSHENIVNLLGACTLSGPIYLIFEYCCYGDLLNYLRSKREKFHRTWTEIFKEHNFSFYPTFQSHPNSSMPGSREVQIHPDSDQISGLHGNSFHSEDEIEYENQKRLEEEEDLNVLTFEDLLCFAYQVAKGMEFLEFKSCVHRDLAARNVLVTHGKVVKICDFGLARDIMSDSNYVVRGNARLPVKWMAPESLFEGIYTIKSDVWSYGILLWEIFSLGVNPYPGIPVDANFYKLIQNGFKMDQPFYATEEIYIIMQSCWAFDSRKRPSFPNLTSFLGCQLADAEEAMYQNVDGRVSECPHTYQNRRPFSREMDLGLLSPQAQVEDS

By inhibition is commonly meant the relative decrease from the control value, in per cent. Turning to `N#Cc1cc(-c2ncnc(Nc3ccc(N4CCN(C5COC5)CC4)cc3)n2)ccc1OC1CCOCC1` [Compound 1, 5-(4-((4-(4-(oxetan-3-yl)piperazin-1-yl)phenyl)amino)-1,3,5-triazin-2-yl)-2-((tetrahydro-2H-pyran-4-yl)oxy)benzonitrile], the inhibition came to 6% at off-target kinases [1] (read-out: % Inhibition 1); 4% on off-target kinases [1] (read-out: % Inhibition 2); 5% on off-target kinases [1] (read-out: % Inhibition Avg); 42% at off-target kinases [2] (read-out: % Inhibition 1); 49% at off-target kinases [2] (read-out: % Inhibition 2); 45% on off-target kinases [2] (read-out: % Inhibition Avg). The inhibition was determined as 29% at off-target kinases [3] (read-out: % Inhibition 1); 24% at off-target kinases [3] (read-out: % Inhibition 2); 27% at off-target kinases [3] (read-out: % Inhibition Avg); 37% at off-target kinases [4] (read-out: % Inhibition 1); 36% at off-target kinases [4] (read-out: % Inhibition 2); 37% at off-target kinases [4] (read-out: % Inhibition Avg).
